These results are taken from patent US10669258B2, “3-sulfonyl-5-aminopyridine-2,4-diol APJ agonists” (BRISTOL-MYERS SQUIBB COMPANY, priority 2016, dated 2020).

The first experiment has as its target T1, human APJ receptor (Homo sapiens, UniProt P35414).
T1 construct: expressed in transfected cells; host or cells: HEK293
T1 sequence (P35414 1-380): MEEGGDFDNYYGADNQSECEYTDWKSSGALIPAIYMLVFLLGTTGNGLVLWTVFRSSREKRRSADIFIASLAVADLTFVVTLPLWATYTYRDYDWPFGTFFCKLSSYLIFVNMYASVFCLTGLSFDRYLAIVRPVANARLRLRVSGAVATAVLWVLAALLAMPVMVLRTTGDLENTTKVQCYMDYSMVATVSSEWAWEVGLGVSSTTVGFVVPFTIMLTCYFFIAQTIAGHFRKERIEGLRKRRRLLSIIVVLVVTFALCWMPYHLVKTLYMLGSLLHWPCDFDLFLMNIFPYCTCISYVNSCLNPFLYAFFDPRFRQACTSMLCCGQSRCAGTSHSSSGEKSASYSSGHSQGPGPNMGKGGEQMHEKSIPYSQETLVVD
The experiment in a line: Intracellular cAMP accumulation assay (APJ hcAMP, HTRF). It is filed as cell-based. The settings on record: HEK293 cells stably expressing human APJ receptor; inhibition of forskolin-mediated cAMP production; Table 1; read-out: hAPJ cAMP EC50 Potency range. On the procedure:
Intracellular cAMP Accumulation Assay
HEK293 cells stably expressing human APJ receptor were used to assess the activity of compounds. Cultured cells were detached and resuspended in the cAMP Homogeneous Time-Resolved Fluorescence (HTRF) assay buffer (Cisbio cat; #62AM4PEJ). The assay was performed in 384-well assay plates (Perkin-Elmer; cat #6008289) according to assay protocol provided by the manufacturer. Serial dilutions of a compound together with assay buffer containing […] IBMX and 2 μM forskolin were added to each well containing 5,000 cells and incubated for 30 minutes at room temperature. Subsequently, cAMP D2 reagent was added in the lysis buffer followed by the EuK antibody (Cisbio; cat #62AM4PEJ) and incubated for 60 min. The fluorescence emission ratio was measured using fluorometer. The intracellular cAMP concentrations (compound-stimulated inhibition of forskolin-mediated cAMP production) were calculated by extrapolation from a standard curve using known cAMP concentrations. The EC50 values were obtained by fitting the data to a sigmoidal concentration-response curve with variable slope. The maximal achievable inhibition of forskolin-induced cAMP levels (Ymax) for each compound was expressed as relative percentage of inhibition attained using pyroglutamated apelin-13 ((Pyr1)apelin-13) peptide, which was set to 100%.
The examples disclosed below were tested in the APJ in vitro assays described above and were found having human APJ cyclic AMP (hcAMP) activity. The EC50 value of each compound is presented at the end of the example description.
The biological activity of the exemplified compounds of this invention determined by the assay described above is shown at the end of each example.
(cAMP levels reflect the balance of adenylyl cyclase and phosphodiesterase activity.)
Usually EC50 stands for the midpoint of the concentration-response curve. Regarding `CCCCc1nc(O)c(S(=O)(=O)c2ccc(-c3ccccc3C(=O)NC)cc2)c(O)c1N(C)c1ccccc1C` [Example 206, 4′-((6-butyl-2,4-dihydroxy-5-(methyl(o-tolyl)amino)pyridin-3-yl)sulfonyl)-N-methyl-[1,1′-biphenyl]-2-carboxamide], the concentration for a half-maximal effect (EC50) fell in the range of 0.01 to 10 nM. Same read-out and setting: in the case of `CCN(c1ccccc1)c1c(-c2cccc(C)c2)nc(O)c(S(=O)(=O)c2ccc(-c3ccc(F)nc3C)cc2)c1O` [Example 114, 5-(ethyl(phenyl)amino)-3-((4-(6-fluoro-2-methylpyridin-3-yl)phenyl)sulfonyl)-6-(m-tolyl)pyridine-2,4-diol] it was 0.01 to 10 nM; in that of `CCCCc1nc(O)c(S(=O)(=O)c2ccc(-c3ccc(F)nc3)cc2)c(O)c1N(C)c1ccccc1` [Example 012, 6-butyl-3-((4-(6-fluoropyridin-3-yl)phenyl)sulfonyl)-5-(methyl(phenyl)amino)pyridine-2,4-diol], 0.01 to 10 nM; in that of `CCCCc1nc(O)c(S(=O)(=O)c2ccc(-c3ccncc3C)cc2)c(O)c1N1CCc2ccccc21` [Example 013, 6-butyl-5-(indolin-1-yl)-3-((4-(3-methylpyridin-4-yl)phenyl)sulfonyl)pyridine-2,4-diol], 0.01 to 10 nM. Turning to `CCCCc1nc(O)c(S(=O)(=O)c2ccc(-c3cccnc3C)cc2)c(O)c1N1CCCOc2ccccc21` [Example 123, 6-butyl-5-(3,4-dihydrobenzo[b][1,4]oxazepin-5(2H)-yl)-3-((4-(2-methylpyridin-3-yl)phenyl)sulfonyl)pyridine-2,4-diol], the concentration giving a half-maximal response (EC50) lay within 10 to 100 nM.

In the case of `CCCCc1nc(O)c(S(=O)(=O)c2ccc(-c3ccccc3C(=O)NC)cc2)c(O)c1N(C)c1cccc(C#N)c1` [Example 137, 4′-((6-butyl-5-((3-cyanophenyl)(methyl)amino)-2,4-dihydroxypyridin-3-yl)sulfonyl)-N-methyl-[1,1′-biphenyl]-2-carboxamide], the EC50 lay within 0.01 to 10 nM. Consider `CCCCc1nc(O)c(S(=O)(=O)c2ccc(-c3cccnc3C)cc2)c(O)c1N1CCC(C)c2ccccc21` (centres unmarked) [Example 042], for which the EC50 fell in the range of 10 to 100 nM. On the same count and under the same terms, in the case of `CCCCc1nc(O)c(C(=O)N2CC[C@H](c3ccccc3)C2)c(O)c1N(CCC)c1ccccc1` [Example 069, (R)-(6-butyl-2,4-dihydroxy-5-(phenyl(propyl)amino)pyridin-3-yl)(3-phenylpyrrolidin-1-yl)methanone] it was 10 to 100 nM; in that of `CCCCc1nc(O)c(S(=O)(=O)c2ccc(-c3ccccc3C(N)=O)cc2)c(O)c1N(CC)c1cccc(C#N)c1` [Example 181, 4′-((6-butyl-5-((3-cyanophenyl)(ethyl)a-mino)-2,4-dihdyroxypyridin-3-yl)sulfonyl)-[1,1′-biphenyl]-2-carboxamide], 0.01 to 10 nM. As to `CNC(=O)c1cccc(-c2ccc(S(=O)(=O)c3c(O)nc(-c4ccn(C)n4)c(N(c4ccccc4)C(C)C)c3O)cc2)c1` [Example 163, 4′-((2,4-dihydroxy-5-(isopropyl(phen-yl)amino)-6-(1-methyl-1H-pyrazol-3-yl)pyridin-3-yl)sulfonyl)-N-methyl-[1,1′-biphenyl]-3-carboxamide], the half-maximal effective concentration (EC50) is 0.01 to 10 nM.

Consider `CCCCc1nc(O)c(S(=O)(=O)c2ccc(-c3ccccc3C(=O)N(C)C)cc2)c(O)c1N1CCCOc2ccccc21` [Example 142, 4′-((6-butyl-5-(3,4-dihydrobenzo[b][1,4]oxazepin-5(2H)-yl)-2,4-dihydroxypyridin-3-yl)sulfonyl)-N,N-dimethyl-[1,1′-biphenyl]-2-carboxamide], for which the EC50 was in the range of 10 to 100 nM. The same measure, in the same setting: in the case of `CCCCc1nc(O)c(S(=O)(=O)c2ccc(-c3ccnc(F)c3C)cc2)c(O)c1N(CC)c1ccccc1` [Example 080, 6-butyl-5-(ethyl(phenyl)amino)-3-((4-(2-fluoro-3-methylpyridin-4-yl)phenyl)sulfonyl)pyridine-2,4-diol] it was 0.01 to 10 nM; in that of `CCN(c1ccccc1)c1c(CC2CC2)nc(O)c(S(=O)(=O)c2ccc(-c3ccccc3C(N)=O)cc2)c1O` [Example 147, 4′-((6-(cyclopropylmethyl)-5-(ethyl(phenyl)amino)-2,4-dihydroxypyridin-3-yl)sulfonyl)-[1,1′-biphenyl]-2-carboxamide], 0.01 to 10 nM; in that of `CCCCc1nc(O)c(S(=O)(=O)c2ccc(-c3ccc(F)nc3C)cc2)c(O)c1N(c1ccccc1)C(C)C` [Example 026, 6-butyl-3-((4-(6-fluoro-2-methylpyridin-3-yl)phenyl)sulfonyl)-5-(isopropyl(phenyl)amino)pyridine-2,4-diol], 0.01 to 10 nM. On the same count and under the same terms, as for `CCN(c1ccccc1)c1c(-c2cccc(C)c2)nc(O)c(S(=O)(=O)c2ccc(-c3ccncc3C)cc2)c1O` [Example 120, 5-(ethyl(phenyl)amino)-3-((4-(3-methylpyridin-4-yl)phenyl)sulfonyl)-6-(m-tolyl)pyridine-2,4-diol], the figure is 0.01 to 10 nM; as for `CCCCc1nc(O)c(S(=O)(=O)c2ccc(-c3ccccc3C(=O)NC)cc2)c(O)c1N1CCCCc2ccccc21` [Example 184, 4′-((6-butyl-2,4-dihydroxy-5-(2,3,4,5-tetrahydro-1H-benzo[b]azepin-1-yl)pyridin-3-yl)sulfonyl)-N-methyl-[1,1′-biphenyl]-2-carboxamide], 10 to 100 nM; as for `CCN(c1cccc(C#N)c1)c1c(-c2ccn(C)n2)nc(O)c(S(=O)(=O)c2ccc(-c3ccc(F)nc3C)cc2)c1O` [Example 213, 3-(ethyl(5-((4-(6-fluoro-2-methylpyridin-3-yl)phenyl)sulfonyl)-4,6-dihydroxy-2-(1-methyl-1H-pyrazol-3-yl)pyridin-3-yl)amino)benzonitrile], 0.01 to 10 nM. The same measure, in the same setting: as for `CCN(c1ccccc1)c1c(-c2cccc(C)c2)nc(O)c(S(=O)(=O)c2ccc(-c3ccccc3C(=O)NC)cc2)c1O` [Example 145, 4′-((5-(ethyl(phenyl)amino)-2,4-dihydroxy-6-(m-tolyl)pyridin-3-yl)sulfonyl)-N-methyl-[1,1′-biphenyl]-2-carboxamide], the figure is 0.01 to 10 nM; as for `CCCCc1nc(O)c(S(=O)(=O)c2ccc(-c3ccccc3C(=O)NC)cc2)c(O)c1N(CC)c1cccc(C#N)c1` [Example 185, 4′-((6-butyl-5-((3-cyanophenyl)(ethyl)a-mino)-2,4-dihydroxypyridin-3-yl)sulfonyl)-N-methyl-[1,1′-biphenyl]-2-carboxamide], 0.01 to 10 nM; as for `CCN(c1cccc(C#N)c1)c1c(-c2ccn(C)n2)nc(O)c(S(=O)(=O)c2ccc(-c3ccncc3C)cc2)c1O` [Example 212, 3-((4,6-dihydroxy-2-(1-methyl-1H-pyrazol-3-yl)-5-((4-(3-methylpyridin-4-yl)phenyl)sulfonyl)pyri-din-3-yl)(ethyl)amino)benzonitrile], 0.01 to 10 nM. Consider `CCCCc1nc(O)c(S(=O)(=O)c2ccc(-c3cccnc3C)cc2)c(O)c1N(C)c1cccc(F)c1` [Example 101, 6-butyl-5-((3-fluorophenyl)(methyl)amino)-3-((4-(2-methylpyridin-3-yl)phenyl)sulfonyl)pyridine-2,4-diol], for which the half-maximal effective concentration (EC50) lay within 0.01 to 10 nM. In the case of `CCN(c1cccc(C#N)c1)c1c(-c2ccn(C)n2)nc(O)c(S(=O)(=O)c2ccc(-c3cccnc3C)cc2)c1O` [Example 217], the EC50 fell in the range of 0.01 to 10 nM. On the same count and under the same terms, in the case of `CCCCc1nc(O)c(S(=O)(=O)c2ccc(Br)cc2)c(O)c1N(CC)c1ccccc1` [Example 077, 3-((4-bromophenyl)sulfonyl)-6-butyl-5-(ethyl(phenyl)amino)pyridine-2,4-diol] it was 10 to 100 nM.

With `CCCCc1nc(O)c(S(=O)(=O)c2ccc(-c3ccccc3COC)cc2)c(O)c1N(CC)c1ccccc1` [Example 087, 6-butyl-5-(ethyl(phenyl)amino)-3-((2′-(methoxymethyl)-[1,1′-biphenyl]-4-yl)sulfonyl)pyridine-2,4-diol], the EC50 lay within 0.01 to 10 nM.

For `CC(C)N(c1ccccc1)c1c(-c2ccn(C)n2)nc(O)c(S(=O)(=O)c2ccc(-c3ccccc3C(N)=O)cc2)c1O` [Example 166, 4′-((2,4-dihydroxy-5-(isopropyl(phen-yl)amino)-6-(1-methyl-1H-pyrazol-3-yl)pyridin-3-yl)sulfonyl)-[1,1′-biphenyl]-2-carboxamide], the 50% effective concentration (EC50) was in the range of 0.01 to 10 nM.

Staying with this experiment, now noted: read-out: hAPJ cAMP EC50 Potency range; HEK293 cells stably expressing human APJ receptor; inhibition of forskolin-mediated cAMP production; Table 1.
On to `CCCCc1nc(O)c(C(=O)N2CCC(c3ncc(Cl)cc3F)C2)c(O)c1N(CC)c1ccccc1` (centres unmarked) [Example 072, (6-butyl-5-(ethyl(phenyl)amino)-2,4-dihydroxypyridin-3-yl)(3-(5-chloro-3-fluoropyridin-2-yl)pyrrolidin-1-yl)methanone], for which the half-maximal effective concentration (EC50) lay within 0.01 to 10 nM.
